Source: US3966701A, “Fibrinogen peptide derivatives” (The Dow Chemical Company, priority 1973, dated 1976)
Where a SMILES comes first, the peptide text is derived from it. The star is where a group is joined. Boc = CC(C)(C)OC(=O)*; OBn = c1ccc(CO*)cc1

Legend:
thrombin [1] = assay: in vitro plasma recalcification time (PRT): calcium ions added to oxalated plasma, clotting time measured; format: biochemical, dog
Protocol: The plasma recalcification time (PRT) was also used in an in vitro test for measuring thrombin inhibition wherein exogenous calcium ions were added to oxalated plasma (the system makes its thrombin in situ), and measuring clotting time in the presence of the compounds.
0.2 ml. oxalated dog plasma
0.1 ml. Barbital buffer saline containing test compound
0.1 ml. oxalated dog plasma
0.2 ml. Barbital buffer saline containing test compound

thrombin [2] = assay: in vitro thrombin time (TT): exogenous thrombin added to oxalated plasma, clotting time measured; format: biochemical; conditions: oxalated dog plasma, thrombin 1 unit/ml, control 15 sec
Protocol: Their anticoagulant activity was determined by measuring thrombin time (TT) utilizing an in vitro test wherein exogenous thrombin is added to oxalated plasma and clotting time is measured in the presence of the test compound.
^a Clotting mixture: 0.2 ml. oxalated dog plasma, 0.1 ml. barbital
buffer containing peptide and 0.1 ml. thrombin (1 unit/ml.)

[3] = 0.25 mg/ml, clotting mixture (a), 0.2 ml oxalated dog plasma, control 66 sec
[4] = 0.5 mg/ml, clotting mixture (a), 0.2 ml oxalated dog plasma, control 66 sec
[5] = 1.0 mg/ml, clotting mixture (a), 0.2 ml oxalated dog plasma, control 66 sec
[6] = 1.5 mg/ml, clotting mixture (a), 0.2 ml oxalated dog plasma, control 66 sec

Compound	PRT (average) (thrombin [1]; [3]) [s]	PRT (average) (thrombin [1]; [4]) [s]	PRT (average) (thrombin [1]; [5]) [s]	PRT (average) (thrombin [1]; [6]) [s]	Thrombin Times (sec) at Peptide Concentrations (mg/ml) (thrombin [2]; 0.125 mg/ml peptide) [s]	Thrombin Times (sec) at Peptide Concentrations (mg/ml) (thrombin [2]; 0.25 mg/ml peptide) [s]	Thrombin Times (sec) at Peptide Concentrations (mg/ml) (thrombin [2]; 0.5 mg/ml peptide) [s]	Thrombin Times (sec) at Peptide Concentrations (mg/ml) (thrombin [2]; 1.0 mg/ml peptide) [s]	Thrombin Times (sec) at Peptide Concentrations (mg/ml) (thrombin [2]; 2.0 mg/ml peptide) [s]	PRT (average) (thrombin [1]; 0.25 mg/ml, clotting mixture (b), 0.1 ml oxalated dog plasma, control 115 sec) [s]	PRT (average) (thrombin [1]; 0.5 mg/ml, clotting mixture (b), 0.1 ml oxalated dog plasma, control 115 sec) [s]	PRT (average) (thrombin [1]; 1.0 mg/ml, clotting mixture (b), 0.1 ml oxalated dog plasma, control 115 sec) [s]	PRT (average) (thrombin [1]; 2 mg/ml, clotting mixture (b), 0.1 ml oxalated dog plasma, control 115 sec) [s]	PRT (average) (thrombin [1]; 0.25 mg/ml, clotting mixture (a), 0.2 ml oxalated dog plasma, control 55 sec) [s]	PRT (average) (thrombin [1]; 0.5 mg/ml, clotting mixture (a), 0.2 ml oxalated dog plasma, control 55 sec) [s]	PRT (average) (thrombin [1]; 1.0 mg/ml, clotting mixture (a), 0.2 ml oxalated dog plasma, control 55 sec) [s]	PRT (average) (thrombin [1]; 1.5 mg/ml, clotting mixture (a), 0.2 ml oxalated dog plasma, control 55 sec) [s]	PRT (average) (thrombin [1]; 2 mg/ml, clotting mixture (a), 0.2 ml oxalated dog plasma, control 55 sec) [s]	PRT (average) (thrombin [1]; 2 mg/ml, clotting mixture (a), 0.2 ml oxalated dog plasma, control 66 sec) [s]
CC(C)(C)OC(=O)NCC(=O)N1CCC[C@H]1C(=O)N[C@@H](CCCNC(=N)N)C(=O)OCc1ccccc1.Cc1ccc(S(=O)(=O)O)cc1 [Example 3, N-t-Butyloxycarbonylglycyl-L-prolyl-L-arginine Benzyl Ester p-Toluenesulfonate] (Boc-Gly-Pro-Arg-OBn)	88	110	146	202	23	29	42	56	75										
N-Benzyloxycarbonyl-L-prolyl-L-arginine Benzyl Ester p-Toluenesulfonate Methanolate [Example 5]										240	270	345	435						
Glycyl-L-Prolyl-L-Arginine Benzyl Ester p-Toluenesulfonate Trifluoroacetate [Example 4]					19	26	44	68	135					77	100	198	246	296	
CC(C)(C)OC(=O)N1CCC[C@H]1C(=O)N[C@@H](CCCNC(=N)N)C(=O)OCc1ccccc1.CO.Cc1ccc(S(=O)(=O)O)cc1 [Example 1, N-t-Butyloxycarbonyl-L-prolyl-L-arginine Benzyl Ester p-Toluenesulfonate Methanolate] (Boc-Pro-Arg-OBn)	128	160	207	229	40	44	73	91	159										250
L-Prolyl-L-arginine Benzyl Ester p-Toluenesulfonate Trifluoroacetate [Example 2]	89	102	134	209	19	23	31	46	69										
